Common to all, as to experiment: relative viability (nuclei count vs DMSO), 5 days (fraction); higher = more cells survive
Compound in the test “Gemcitabine + Trametinib”: Nc1ccn([C@@H]2O[C@H](CO)[C@@H](O)C2(F)F)c(=O)n1 [Gemcitabine] + CC(=O)Nc1cccc(-n2c(=O)n(C3CC3)c(=O)c3c(Nc4ccc(I)cc4F)n(C)c(=O)c(C)c32)c1 [Trametinib] (partner 0.02 µM)
A digest of the protocol: (§1)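 Lung cancer cell lines in 1536-well plates got either a single drug or a fixed anchor-drug dose together with five library-drug doses (not always all listed) in √10 steps, by pin tool, on the day after seeding. Nuclei were counted after 5 days, and relative viability is the treated-to-vehicle ratio of nuclei counts. Values are medians of duplicate plates.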

Compound in the test “Gemcitabine + Navitoclax”: Nc1ccn([C@@H]2O[C@H](CO)[C@@H](O)C2(F)F)c(=O)n1 [Gemcitabine] + CC1(C)CCC(c2ccc(Cl)cc2)=C(CN2CCN(c3ccc(C(=O)NS(=O)(=O)c4ccc(N[C@H](CCN5CCOCC5)CSc5ccccc5)c(S(=O)(=O)C(F)(F)F)c4)cc3)CC2)C1 [Navitoclax] (partner 0.5 µM)
A digest of the protocol: as §1

Compound in the test “Gemcitabine + Phenformin”: Nc1ccn([C@@H]2O[C@H](CO)[C@@H](O)C2(F)F)c(=O)n1 [Gemcitabine] + N=C(N)NC(=N)NCCc1ccccc1 [Phenformin] (partner 250 µM)
The method in brief: as §1

Compound in the test “Gemcitabine + Pemetrexed”: Nc1ccn([C@@H]2O[C@H](CO)[C@@H](O)C2(F)F)c(=O)n1 [Gemcitabine] + Nc1nc2[nH]cc(CCc3ccc(C(=O)N[C@@H](CCC(=O)O)C(=O)O)cc3)c2c(=O)[nH]1 [Pemetrexed] (partner 0.2 µM)
A digest of the protocol: as §1

Data on 4 cell lines can be found in the supplement of paper PMC10307832.

H3255: the relative viability with Gemcitabine + Trametinib (first compound 0.001 µM) worked out at 0.608; with Gemcitabine + Trametinib (first compound 0.003162 µM) it was 0.517; in the test with Gemcitabine + Trametinib (first compound 0.01 µM) it was 0.514; with Gemcitabine + Trametinib (first compound 0.03162 µM) it was 0.318; with Gemcitabine + Trametinib (first compound 0.1 µM) it was 0.271; in the test with Gemcitabine + Navitoclax (first compound 0.001 µM) it was 0.558. The relative viability in the test with Gemcitabine + Navitoclax (first compound 0.003162 µM) stood at 0.404; in the test with Gemcitabine + Navitoclax (first compound 0.01 µM), 0.135; with Gemcitabine + Navitoclax (first compound 0.03162 µM), 0.121; with Gemcitabine + Navitoclax (first compound 0.1 µM), 0.106; with Gemcitabine + Phenformin (first compound 0.001 µM), 0.352; in the test with Gemcitabine + Phenformin (first compound 0.003162 µM) it was 0.266. Further, the relative viability amounted to 0.31 with Gemcitabine + Phenformin (first compound 0.01 µM); 0.368 in the test with Gemcitabine + Phenformin (first compound 0.03162 µM); 0.302 in the test with Gemcitabine + Phenformin (first compound 0.1 µM); 0.565 with Gemcitabine + Pemetrexed (first compound 0.001 µM); 0.519 in the test with Gemcitabine + Pemetrexed (first compound 0.003162 µM); 0.591 with Gemcitabine + Pemetrexed (first compound 0.01 µM). Besides, the relative viability in the test with Gemcitabine + Pemetrexed (first compound 0.03162 µM) came to 0.335; in the test with Gemcitabine + Pemetrexed (first compound 0.1 µM), 0.224.
For the cell line LXF-289, the relative viability came to 0.644 in the test with Gemcitabine + Trametinib (first compound 0.001 µM); 0.683 in the test with Gemcitabine + Trametinib (first compound 0.003162 µM); 0.611 in the test with Gemcitabine + Trametinib (first compound 0.01 µM); 0.205 with Gemcitabine + Trametinib (first compound 0.03162 µM); 0.147 with Gemcitabine + Trametinib (first compound 0.1 µM); 0.934 with Gemcitabine + Navitoclax (first compound 0.001 µM). Moreover, the relative viability with Gemcitabine + Navitoclax (first compound 0.003162 µM) stood at 0.925; with Gemcitabine + Navitoclax (first compound 0.01 µM), 0.655; with Gemcitabine + Navitoclax (first compound 0.03162 µM) it was 0.084; with Gemcitabine + Navitoclax (first compound 0.1 µM), 0.0735; with Gemcitabine + Phenformin (first compound 0.001 µM), 0.517; with Gemcitabine + Phenformin (first compound 0.003162 µM), 0.445. In addition, the relative viability with Gemcitabine + Phenformin (first compound 0.01 µM) amounted to 0.263; in the test with Gemcitabine + Phenformin (first compound 0.03162 µM), 0.0911; with Gemcitabine + Phenformin (first compound 0.1 µM), 0.0812; in the test with Gemcitabine + Pemetrexed (first compound 0.001 µM), 0.901; in the test with Gemcitabine + Pemetrexed (first compound 0.003162 µM), 0.964; with Gemcitabine + Pemetrexed (first compound 0.01 µM), 0.642. Further, the relative viability with Gemcitabine + Pemetrexed (first compound 0.03162 µM) was 0.102; with Gemcitabine + Pemetrexed (first compound 0.1 µM) it was 0.0843.
For the cell line UMC-11, the relative viability is 0.627 with Gemcitabine + Trametinib (first compound 0.001 µM); 0.635 with Gemcitabine + Trametinib (first compound 0.003162 µM); 0.716 with Gemcitabine + Trametinib (first compound 0.01 µM); 0.609 in the test with Gemcitabine + Trametinib (first compound 0.03162 µM); 0.161 with Gemcitabine + Trametinib (first compound 0.1 µM); 0.376 with Gemcitabine + Navitoclax (first compound 0.001 µM). Moreover, the relative viability with Gemcitabine + Navitoclax (first compound 0.003162 µM) worked out at 0.309; with Gemcitabine + Navitoclax (first compound 0.01 µM), 0.291; in the test with Gemcitabine + Navitoclax (first compound 0.03162 µM), 0.21; in the test with Gemcitabine + Navitoclax (first compound 0.1 µM) it was 0.118; in the test with Gemcitabine + Phenformin (first compound 0.001 µM), 0.384; with Gemcitabine + Phenformin (first compound 0.003162 µM), 0.349. For the same cell line, the relative viability came out at 0.328 with Gemcitabine + Phenformin (first compound 0.01 µM); 0.275 in the test with Gemcitabine + Phenformin (first compound 0.03162 µM); 0.185 with Gemcitabine + Phenformin (first compound 0.1 µM); 0.814 with Gemcitabine + Pemetrexed (first compound 0.001 µM); 0.769 with Gemcitabine + Pemetrexed (first compound 0.003162 µM); 0.747 in the test with Gemcitabine + Pemetrexed (first compound 0.01 µM). In addition, the relative viability with Gemcitabine + Pemetrexed (first compound 0.03162 µM) came to 0.676; with Gemcitabine + Pemetrexed (first compound 0.1 µM), 0.403.
Regarding LC-2-ad, the relative viability in the test with Gemcitabine + Trametinib (first compound 0.001 µM) was determined as 0.926; in the test with Gemcitabine + Trametinib (first compound 0.003162 µM), 1.01; with Gemcitabine + Trametinib (first compound 0.01 µM), 0.845; with Gemcitabine + Trametinib (first compound 0.03162 µM) it was 0.645; with Gemcitabine + Trametinib (first compound 0.1 µM) it was 0.236; in the test with Gemcitabine + Navitoclax (first compound 0.001 µM), 0.431. Besides, the relative viability with Gemcitabine + Navitoclax (first compound 0.003162 µM) was found to be 0.4; in the test with Gemcitabine + Navitoclax (first compound 0.01 µM), 0.236; with Gemcitabine + Navitoclax (first compound 0.03162 µM), 0.118; with Gemcitabine + Navitoclax (first compound 0.1 µM), 0.0927; in the test with Gemcitabine + Phenformin (first compound 0.001 µM), 0.569; with Gemcitabine + Phenformin (first compound 0.003162 µM) it was 0.347. In addition, the relative viability in the test with Gemcitabine + Phenformin (first compound 0.01 µM) came out at 0.339; with Gemcitabine + Phenformin (first compound 0.03162 µM), 0.212; with Gemcitabine + Phenformin (first compound 0.1 µM), 0.161; in the test with Gemcitabine + Pemetrexed (first compound 0.001 µM) it was 0.266; with Gemcitabine + Pemetrexed (first compound 0.003162 µM) it was 0.28; with Gemcitabine + Pemetrexed (first compound 0.01 µM), 0.256. Besides, the relative viability with Gemcitabine + Pemetrexed (first compound 0.03162 µM) came to 0.255; with Gemcitabine + Pemetrexed (first compound 0.1 µM), 0.233.
